In patent US20250034153A1, “TRIAZOLOPYRIMIDINES AS A2A / A2B INHIBITORS” (Incyte Corporation, priority 2019, published 2025):
pEC50, pKi: −log10 of the molar value.

Tests used:
Adenosine A2A = Adenosine A2A (Homo sapiens (Human), UniProt P29274); assay: A2A Tag-lite HTRF assay (Example C); settings: Tag-lite Adenosine A2A labeled cells, Red antagonist fluorescent ligand 12.5 nM, one-site competitive binding; read-out: A2A_Ki
Description: Example C. A2A Tag-Lite® HTRF Assay
Assays were conducted in black low volume 384-well polystyrene plates (Greiner 784076-25) in a final volume of 10 μL. Test compounds were first serially diluted in DMSO and 100 nl added to the plate wells before the addition of other reaction components. The final concentration of DMSO was 1%. Tag-lite® Adenosine A2A labeled cells (CisBio C1TT1A2A) were diluted 1:5 into Tag-lite buffer (CisBio LABMED) and spun 1200 g for 5 mins. The pellet was resuspended at a volume 10.4× the initial cell suspension volume in Tag-lite buffer, and Adenosine A2A Receptor Red antagonist fluorescent ligand (CisBio L0058RED) added at 12.5 nM final concentration. 10 ul of the cell and ligand mix was added to the assay wells and incubated at room temperature for 45 minutes before reading on a PHERAstar FS plate reader (BMG Labtech) with HTRF 337/620/665 optical module. Percent binding of the fluorescent ligand was calculated; where 100 nM of A2A antagonist control ZM 241385 (Tocris 1036) displaces the ligand 100% and 1% DMSO has 0% displacement. The % binding data versus the log of the inhibitor concentration was fitted to a one-site competitive binding model (GraphPad Prism version 7.02) where the ligand constant=12.5 nM and the ligand Kd=1.85 nM.

[1] = biological target: human adenosine A2B receptor (Homo sapiens (Human), UniProt P29275); assay: Adenosine A2B receptor cyclic AMP GS assay (Example B); type: cell-based; settings: HEK-293 cells expressing human A2B, agonist NECA 12 nM, cAMP accumulation (FRET); read-out: A2B_cAMP_EC50
Chain of human adenosine A2B receptor (P29275 whole entry): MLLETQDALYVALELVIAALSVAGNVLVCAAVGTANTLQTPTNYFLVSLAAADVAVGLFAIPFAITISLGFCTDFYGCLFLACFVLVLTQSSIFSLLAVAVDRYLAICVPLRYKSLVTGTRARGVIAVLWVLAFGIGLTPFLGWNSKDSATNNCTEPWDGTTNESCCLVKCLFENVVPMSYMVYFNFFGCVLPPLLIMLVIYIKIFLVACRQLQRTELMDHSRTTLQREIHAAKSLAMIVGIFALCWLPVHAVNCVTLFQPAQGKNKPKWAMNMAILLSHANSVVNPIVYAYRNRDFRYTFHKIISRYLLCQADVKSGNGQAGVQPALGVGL
Description: Example B. Adenosine A2B Receptor Cyclic AMP GS Assay
Stably transfected HEK-293 cells expressing the human adenosine A2B receptor (Perkin Elmer) were maintained in MEM culture medium with 10% FBS and 100 μg/ml Geneticin (Life Technologies). 18 to 24 hours prior to assay, geneticin was removed from culture. The cisbio cAMP-GS Dynamic kit utilizing the FRET (Fluorescence Resonance Energy Transfer) technology was used to measure cAMP accumulation in the cells. Compounds of the present disclosure at an appropriate concentration were mixed with 10000 cells/well in white 96 well half area plates (Perkin Elmer) for 30 min at RT gently shaking. Agonist, NECA (R&D Technologies) at 12 nM was added to each well for 60 min at RT gently shaking. Detection reagents, d2-labeled cAMP (acceptor) and anti-cAMP cryptate (donor) were added to each well for 60 min at RT gently shaking. Plates were read on Pherastar (BMG Labtech), fluorescence ratio 665/620 was calculated and EC50 determination was performed by fitting the curve of percent of control versus the log of the compound concentration using GraphPad Prism.

Chain of Adenosine A2A (P29274 whole entry): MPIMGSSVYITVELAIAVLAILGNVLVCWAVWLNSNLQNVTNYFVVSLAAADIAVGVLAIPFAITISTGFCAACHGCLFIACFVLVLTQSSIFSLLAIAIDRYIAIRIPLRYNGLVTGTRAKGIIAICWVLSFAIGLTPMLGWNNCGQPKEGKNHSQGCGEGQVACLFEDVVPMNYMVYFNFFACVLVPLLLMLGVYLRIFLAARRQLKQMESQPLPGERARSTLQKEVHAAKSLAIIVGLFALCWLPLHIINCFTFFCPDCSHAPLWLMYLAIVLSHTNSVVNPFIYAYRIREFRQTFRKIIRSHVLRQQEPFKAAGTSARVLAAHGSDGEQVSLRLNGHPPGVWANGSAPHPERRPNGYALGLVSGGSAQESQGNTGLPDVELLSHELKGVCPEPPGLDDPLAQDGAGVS

| Compound | pKi (Adenosine A2A) | pEC50 [1] |
| --- | --- | --- |
| N#Cc1cccc(-c2nc(N)n3nc(Cn4nnnc4-c4cccc(N)c4)nc3c2-c2ccncn2)c1 [Example 1, 3-(5-amino-2-((5-(3-aminophenyl)-1H-tetrazol-1-yl)methyl)-8-(pyrimidin-4-yl)-[1,2,4]triazolo[1,5-c]pyrimidin-7-yl)benzonitrile] | ≥ 8.00 | ≥ 8.00 |
| Cc1cccc(-c2nnnn2Cc2nc3c(-c4ccncn4)c(-c4cccc(C#N)c4)nc(N)n3n2)n1 [Example 2, 3-(5-amino-2-((5-(6-methylpyridin-2-yl)-1H-tetrazol-1-yl)methyl)-8-(pyrimidin-4-yl)-[1,2,4]triazolo[1,5-c]pyrimidin-7-yl)benzonitrile] | ≥ 8.00 | ≥ 8.00 |
| COc1cccc(-c2nnnn2Cc2nc3c(-c4ccncn4)c(-c4cccc(C#N)c4)nc(N)n3n2)n1 [Example 3, 3-(5-amino-2-((5-(6-methoxypyridin-2-yl)-1H-tetrazol-1-yl)methyl)-8-(pyrimidin-4-yl)-[1,2,4]triazolo[1,5-c]pyrimidin-7-yl)benzonitrile] | ≥ 8.00 | 7.00 to 8.00 |
| Cn1cc(-c2c(-c3cccc(C#N)c3)nc(N)n3nc(Cn4nnnc4-c4ccccn4)nc23)ccc1=O [Example 4, 3-(5-amino-8-(1-methyl-6-oxo-1,6-dihydropyridin-3-yl)-2-((5-(pyridin-2-yl)-1H-tetrazol-1-yl)methyl)-[1,2,4]triazolo[1,5-c]pyrimidin-7-yl)benzonitrile] | ≥ 8.00 | 7.00 to 8.00 |
| Cn1cc(-c2c(-c3cccc(C#N)c3)nc(N)n3nc(Cn4nnnc4-n4cccn4)nc23)ccc1=O [Example 5, 3-(2-((5-(1H-pyrazol-1-yl)-1H-tetrazol-1-yl)methyl)-5-amino-8-(1-methyl-6-oxo-1,6-dihydropyridin-3-yl)-[1,2,4]triazolo[1,5-c]pyrimidin-7-yl)benzonitrile] | ≥ 8.00 | 7.00 to 8.00 |
| Cn1cc(-c2c(-c3cccc(C#N)c3)nc(N)n3nc(Cn4nnnc4-c4cscn4)nc23)ccc1=O [Example 6, 3-(5-amino-8-(1-methyl-6-oxo-1,6-dihydropyridin-3-yl)-2-((5-(thiazol-4-yl)-1H-tetrazol-1-yl)methyl)-[1,2,4]triazolo[1,5-c]pyrimidin-7-yl)benzonitrile] | ≥ 8.00 | 7.00 to 8.00 |
| Cn1cc(-c2c(-c3cccc(C#N)c3)nc(N)n3nc(Cn4nnnc4-c4ncccn4)nc23)ccc1=O [Example 7, 3-(5-amino-8-(1-methyl-6-oxo-1,6-dihydropyridin-3-yl)-2-((5-(pyrimidin-2-yl)-1H-tetrazol-1-yl)methyl)-[1,2,4]triazolo[1,5-c]pyrimidin-7-yl)benzonitrile] | ≥ 8.00 | 7.00 to 8.00 |
| Cn1cc(-c2c(-c3cccc(C#N)c3)nc(N)n3nc(Cn4nnnc4-c4cnccn4)nc23)ccc1=O [Example 8, 3-(5-amino-8-(1-methyl-6-oxo-1,6-dihydropyridin-3-yl)-2-((5-(pyrazin-2-yl)-1H-tetrazol-1-yl)methyl)-[1,2,4]triazolo[1,5-c]pyrimidin-7-yl)benzonitrile] | ≥ 8.00 | 7.00 to 8.00 |
| Cn1nc(-c2c(-c3cccc(C#N)c3)nc(N)n3nc(Cn4nnnc4-c4ccccn4)nc23)ccc1=O [Example 9, 3-(5-amino-8-(1-methyl-6-oxo-1,6-dihydropyridazin-3-yl)-2-((5-(pyridin-2-yl)-1H-tetrazol-1-yl)methyl)-[1,2,4]triazolo[1,5-c]pyrimidin-7-yl)benzonitrile] | ≥ 8.00 | 7.00 to 8.00 |

Next, values leading:

| pKi (Adenosine A2A) | pEC50 [1] | Compound |
| --- | --- | --- |
| ≥ 8.00 | ≥ 8.00 | N#Cc1cccc(-c2nc(N)n3nc(Cn4nnnc4-c4ccccn4)nc3c2-c2ccncc2)c1 [Example 10, 3-(5-amino-2-((5-(pyridin-2-yl)-1H-tetrazol-1-yl)methyl)-8-(pyridin-4-yl)-[1,2,4]triazolo[1,5-c]pyrimidin-7-yl)benzonitrile] |
| ≥ 8.00 | ≥ 8.00 | CN(C)c1cc(-c2c(-c3cccc(C#N)c3)nc(N)n3nc(Cn4nnnc4-c4ccccn4)nc23)ccn1 [Example 11, 3-(5-amino-8-(2-(dimethylamino)pyridin-4-yl)-2-((5-(pyridin-2-yl)-1H-tetrazol-1-yl)methyl)-[1,2,4]triazolo[1,5-c]pyrimidin-7-yl)benzonitrile] |
| ≥ 8.00 | ≥ 8.00 | N#Cc1cccc(-c2nc(N)n3nc(Cn4nnnc4-c4ccccn4)nc3c2-c2ccnc(N)c2)c1 [Example 12, 3-(5-amino-8-(2-aminopyridin-4-yl)-2-((5-(pyridin-2-yl)-1H-tetrazol-1-yl)methyl)-[1,2,4]triazolo[1,5-c]pyrimidin-7-yl)benzonitrile] |
| ≥ 8.00 | ≥ 8.00 | N#Cc1cccc(-c2nc(N)n3nc(Cc4c(F)cccc4-c4ccncc4)nc3c2-c2ccncc2)c1 [Example 13, 3-(5-amino-2-(2-fluoro-6-(pyridin-4-yl)benzyl)-8-(pyridin-4-yl)-[1,2,4]triazolo[1,5-c]pyrimidin-7-yl)benzonitrile] |
| ≥ 8.00 | ≥ 8.00 | N#Cc1cccc(-c2nc(N)n3nc(Cc4c(F)cccc4-c4ccnc(N)c4)nc3c2-c2ccnc(N)c2)c1 [Example 14, 3-(5-amino-8-(2-aminopyridin-4-yl)-2-(2-(2-aminopyridin-4-yl)-6-fluorobenzyl)-[1,2,4]triazolo[1,5-c]pyrimidin-7-yl)benzonitrile] |
| ≥ 8.00 | ≥ 8.00 | Cc1cccnc1CNc1nc2c(-c3ccc(=O)n(C)c3)c(-c3cccc(C#N)c3)nc(N)n2n1 [Example 15, 3-(5-amino-8-(1-methyl-6-oxo-1,6-dihydropyridin-3-yl)-2-(((3-methylpyridin-2-yl)methyl)amino)-[1,2,4]triazolo[1,5-c]pyrimidin-7-yl)benzonitrile] |
| ≥ 8.00 | ≥ 8.00 | CCn1cc(-c2c(-c3cccc(C#N)c3)nc(N)n3nc(NCc4ncccc4C)nc23)ccc1=O [Example 16, 3-(5-amino-8-(1-ethyl-6-oxo-1,6-dihydropyridin-3-yl)-2-(((3-methylpyridin-2-yl)methyl)amino)-[1,2,4]triazolo[1,5-c]pyrimidin-7-yl)benzonitrile] |
| ≥ 8.00 | ≥ 8.00 | Cc1cccnc1CNc1nc2c(-c3ccc(=O)n(C)n3)c(-c3cccc(C#N)c3)nc(N)n2n1 [Example 17, 3-(5-amino-8-(1-methyl-6-oxo-1,6-dihydropyridazin-3-yl)-2-(((3-methylpyridin-2-yl)methyl)amino)-[1,2,4]triazolo[1,5-c]pyrimidin-7-yl)benzonitrile] |
| ≥ 8.00 | ≥ 8.00 | Cc1cccnc1COc1nc2c(-c3ccc(=O)n(C)c3)c(-c3cccc(C#N)c3)nc(N)n2n1 [Example 18, 3-(5-amino-8-(1-methyl-6-oxo-1,6-dihydropyridin-3-yl)-2-((3-methylpyridin-2-yl)methoxy)-[1,2,4]triazolo[1,5-c]pyrimidin-7-yl)benzonitrile] |
| ≥ 8.00 | ≥ 8.00 | Cc1cccnc1COc1nc2c(-c3ccc(=O)n(C)n3)c(-c3cccc(C#N)c3)nc(N)n2n1 [Example 19, 3-(5-amino-8-(1-methyl-6-oxo-1,6-dihydropyridazin-3-yl)-2-((3-methylpyridin-2-yl)methoxy)-[1,2,4]triazolo[1,5-c]pyrimidin-7-yl)benzonitrile] |
| ≥ 8.00 | ≥ 8.00 | Cc1cnccc1-c1c(-c2cccc(C#N)c2)nc(N)n2nc(OCc3ncccc3C)nc12 [Example 20, 3-(5-amino-2-((3-methylpyridin-2-yl)methoxy)-8-(3-methylpyridin-4-yl)-[1,2,4]triazolo[1,5-c]pyrimidin-7-yl)benzonitrile] |
| ≥ 8.00 | 7.00 to 8.00 | Cc1cc(-c2c(-c3cccc(C#N)c3)nc(N)n3nc(OCc4ncccc4C)nc23)cc(C)n1 [Example 21, 3-(5-amino-8-(2,6-dimethylpyridin-4-yl)-2-((3-methylpyridin-2-yl)methoxy)-[1,2,4]triazolo[1,5-c]pyrimidin-7-yl)benzonitrile] |
| ≥ 8.00 | 7.00 to 8.00 | CCn1cc(-c2c(-c3cccc(C#N)c3)nc(N)n3nc(OCc4ncccc4C)nc23)ccc1=O [Example 22, 3-(5-amino-8-(1-ethyl-6-oxo-1,6-dihydropyridin-3-yl)-2-((3-methylpyridin-2-yl)methoxy)-[1,2,4]triazolo[1,5-c]pyrimidin-7-yl)benzonitrile] |
